Experimental data from patent US10538535B2, “Antitumoral compounds” (priority 2017, dated 2020).
Where two headings read alike, the source gives them in different places.

Assays:
Assay in all cases: cells
A549 cells = conditions: for CC50: read-out: LC50; for IC (TGI): read-out: TGI
Excerpt: (§1) The aim of this assay is to evaluate the in vitro cytostatic (ability to delay or arrest tumor cell growth) or cytotoxic (ability to kill tumor cells) activity of the samples being tested.
(§2) A colorimetric assay, using sulforhodamine B (SRB) reaction has been adapted to provide a quantitative measurement of cell growth and viability (following the technique described by Skehan et al. J. Natl. Cancer Inst. 1990, 82, 1107-1112). Another colorimetric assay based on 3-(4,5-Dimethylthiazol-2-yl)-2,5-diphenyltetrazolium bromide (MTT) reduction to a purple formazan has been also used to assess the antiproliferative activity (following the technique described by Mosmann et al. J. Immunol. Meth. 1983, 65, 55-63).
(§3) These forms of assays employ 96-well cell culture microplates following the standards of the American National Standards Institute and the Society for Laboratory Automation and Screening (ANSI SLAS 1-2004 (R2012) Oct. 12, 2011. All the cell lines used in this study were obtained from the American Type Culture Collection (ATCC) and derive from different types of human cancer.
(§4) A549, HT29, MDA-MB-231 and PSN1 cells were maintained in Dulbecco's Modified Eagle Medium (DMEM) while PC-3 and 22Rv1 cells were maintained in Roswell Park Memorial Institute Medium (RPMI). All cell lines were supplemented with 10% Fetal Bovine Serum (FBS), 2 mM L-glutamine, 100 U/mL penicillin, and 100 […] at 37° C., 5% CO2 and 98% humidity. For the experiments, cells were harvested from subconfluent cultures using trypsinization and resuspended in fresh medium before counting and plating.
(§5) A549, HT29, MDA-MB-231 and PSN1 cells were seeded in 96 well microtiter plates, at 5000 cells per well in aliquots of 150 μL, and allowed to attach to the plate surface for 18 hours (overnight) in drug free medium. After that, one control (untreated) plate of each cell line was fixed (as described below) and used for time zero reference value. Culture plates were then treated with test compounds (50 μL aliquots of 4× stock solutions in complete culture medium plus 4% DMSO) using ten 2/5 serial dilutions (concentrations ranging from 10 to 0.003 μg/mL) and triplicate cultures (1% final concentration in DMSO). After 72 hours treatment, the antitumor effect was measured by using the SRB methodology: Briefly, cells were washed twice with PBS, fixed for 15 min in 1% glutaraldehyde solution at room temperature, rinsed twice in PBS, and stained in 0.4% SRB solution for 30 min at room temperature. Cells were then rinsed several times with 1% acetic acid solution and air-dried at room temperature.
(§6) Effects on cell growth and survival were estimated by applying the NCI algorithm (Boyd M R and Paull K D. Drug Dev. Res. 1995, 34, 91-104). The values obtained in triplicate cultures were fitted by nonlinear regression to a four-parameters logistic curve by nonlinear regression analysis.

HT29 cells = conditions: for CC50: read-out: LC50; for IC (TGI): read-out: TGI
Excerpt: as §1, §2, §3, §4, §5, §6

MDA-MB-231 cells = conditions: for GI50 / CC50 / IC (TGI): Homo sapiens, MDA-MB-231, 72 h; for CC50: read-out: LC50; for IC (TGI): read-out: TGI
Excerpt: as §1, §2, §3, §4, §5, §6

PSN1 cells = conditions: for CC50: read-out: LC50; for IC (TGI): read-out: TGI
Excerpt: as §1, §2, §3, §4, §5, §6

[1] = Homo sapiens, PSN1, 72 h, PSN1, 72 hours treatment, SRB

| Structure (SMILES) | GI50 (A549 cells; Homo sapiens, A549, 72 h) [nM] | CC50 (A549 cells; Homo sapiens, A549, 72 h) [nM] | IC (TGI) (A549 cells; Homo sapiens, A549, 72 h) [nM] | GI50 (HT29 cells; Homo sapiens, HT-29, 72 h) [nM] | CC50 (HT29 cells; Homo sapiens, HT-29, 72 h) [nM] | IC (TGI) (HT29 cells; Homo sapiens, HT-29, 72 h) [nM] | CC50 (MDA-MB-231 cells) [nM] | IC (TGI) (MDA-MB-231 cells) [nM] | CC50 (PSN1 cells; Homo sapiens, PSN1, 72 h) [nM] | IC (TGI) (PSN1 cells; Homo sapiens, PSN1, 72 h) [nM] | also measured |
| --- | --- | --- | --- | --- | --- | --- | --- | --- | --- | --- | --- |
| COc1c(C)cc2c(c1O)[C@@H]1[C@@H]3[C@@H]4SC[C@]5(N[C@H](C)Cc6c5[nH]c5ccccc65)C(=O)OC[C@@H](c5c6c(c(C)c(OC(C)=O)c54)OCO6)N3[C@@H](C#N)[C@H](C2)N1C [A] | 8.36 | > 129 | 8.87 | 7.71 | > 129 | 8.36 | 14.1 | 9.38 | 19.3 | 15.4 | GI50 (MDA-MB-231 cells): 7.07 nM; GI50 (PSN1 cells; Homo sapiens, PSN1, 72 h): 12.9 nM |
| COc1c(C)cc2c(c1O)[C@@H]1[C@@H]3[C@@H]4SC[C@]5(N[C@@H](C)Cc6c5[nH]c5ccccc65)C(=O)OC[C@@H](c5c6c(c(C)c(OC(C)=O)c54)OCO6)N3[C@@H](C#N)[C@H](C2)N1C [B] | 20.6 | > 129 | 21.9 | 8.48 | > 129 | 9.13 | 34.7 | 16.7 | 23.1 | 20.6 | GI50 (MDA-MB-231 cells): 9 nM; GI50 (PSN1 cells; Homo sapiens, PSN1, 72 h): 19.3 nM |
| COc1c(C)cc2c(c1O)[C@@H]1[C@@H]3[C@@H]4SC[C@]5(N[C@@H](CO)Cc6c5[nH]c5ccccc65)C(=O)OC[C@@H](c5c6c(c(C)c(OC(C)=O)c54)OCO6)N3[C@@H](C#N)[C@H](C2)N1C [Compound 3-R] |  | > 126 | 0.579 |  | > 126 | > 126 | 1.25 | 0.504 | > 126 | 0.605 | GI50 (PSN1 cells; [1]): 0.39 nM |
| COc1c(C)cc2c(c1O)[C@@H]1[C@@H]3[C@@H]4SC[C@]5(N[C@H](COC(C)=O)Cc6c5[nH]c5ccccc65)C(=O)OC[C@@H](c5c6c(c(C)c(OC(C)=O)c54)OCO6)N3[C@@H](C#N)[C@H](C2)N1C [Compound 3a-S] | 3.11 | > 120 | 3.23 | 2.99 | > 120 | 3.23 | 4.9 | 3.59 | 12 | 3.59 | GI50 (MDA-MB-231 cells): 2.87 nM; GI50 (PSN1 cells; [1]): 2.15 nM |
| COc1c(C)cc2c(c1O)[C@@H]1[C@@H]3[C@@H]4SC[C@]5(N[C@H](COC(C)=O)Cc6c5[nH]c5ccccc65)C(=O)OC[C@@H](c5c6c(c(C)c(OC(C)=O)c54)OCO6)N3[C@@H](O)[C@H](C2)N1C [Compound 4a-S] |  | > 121 |  |  | > 121 |  |  |  |  |  |  |
| C=CCOC(=O)NC[C@H]1Cc2c([nH]c3ccccc23)[C@@]2(CS[C@@H]3c4c(OC(C)=O)c(C)c5c(c4[C@H](COC2=O)N2[C@@H]3[C@H]3c4c(cc(C)c(OC)c4O)C[C@@H]([C@@H]2C#N)N3C)OCO5)N1 [Compound 10-R] |  | > 114 |  |  | > 114 | > 114 |  |  |  |  |  |
| C=CCOC(=O)NC[C@@H]1Cc2c([nH]c3ccccc23)[C@@]2(CS[C@@H]3c4c(OC(C)=O)c(C)c5c(c4[C@H](COC2=O)N2[C@@H]3[C@H]3c4c(cc(C)c(OC)c4O)C[C@@H]([C@@H]2C#N)N3C)OCO5)N1 [Compound 10-S] |  |  |  |  | > 1140 |  |  |  |  |  |  |
| COc1c(C)cc2c(c1O)[C@@H]1[C@@H]3[C@@H]4SC[C@]5(N[C@@H](CN)Cc6c5[nH]c5ccccc65)C(=O)OC[C@@H](c5c6c(c(C)c(OC(C)=O)c54)OCO6)N3[C@@H](C#N)[C@H](C2)N1C [Compound 11-R] | 1.77 | > 126 |  | 1.39 | > 126 | > 126 |  |  | > 126 | 1.89 | GI50 (PSN1 cells; [1]): 1.39 nM |
| COc1c(C)cc2c(c1O)[C@@H]1[C@@H]3[C@@H]4SC[C@]5(N[C@H](CN)Cc6c5[nH]c5ccccc65)C(=O)OC[C@@H](c5c6c(c(C)c(OC(C)=O)c54)OCO6)N3[C@@H](C#N)[C@H](C2)N1C [Compound 11-S] |  | > 126 |  |  | > 126 | > 126 |  |  |  |  |  |
| C=CCOC(=O)NC[C@H]1Cc2c([nH]c3ccccc23)[C@@]2(CS[C@@H]3c4c(OC(C)=O)c(C)c5c(c4[C@H](COC2=O)N2[C@@H]3[C@H]3c4c(cc(C)c(OC)c4O)C[C@@H]([C@@H]2O)N3C)OCO5)N1 [Compound 13-R] |  | > 115 |  |  | > 115 |  |  |  |  |  |  |
| C=CCOC(=O)NC[C@@H]1Cc2c([nH]c3ccccc23)[C@@]2(CS[C@@H]3c4c(OC(C)=O)c(C)c5c(c4[C@H](COC2=O)N2[C@@H]3[C@H]3c4c(cc(C)c(OC)c4O)C[C@@H]([C@@H]2O)N3C)OCO5)N1 [Compound 13-S] |  |  |  |  | > 1150 |  |  |  |  |  |  |
| COc1c(C)cc2c(c1O)[C@@H]1[C@@H]3[C@@H]4SC[C@]5(N[C@H](C(=O)O)Cc6c5[nH]c5ccccc65)C(=O)OC[C@@H](c5c6c(c(C)c(OC(C)=O)c54)OCO6)N3[C@@H](C#N)[C@H](C2)N1C [Compound 14-S] | > 124 | > 124 | > 124 | 121 | > 124 | > 124 | > 124 | 113 | > 124 | > 124 | GI50 (MDA-MB-231 cells): 54.5 nM; GI50 (PSN1 cells; Homo sapiens, PSN1, 72 h): > 124 nM |
| COc1c(C)cc2c(c1O)[C@@H]1[C@@H]3[C@@H]4SC[C@]5(N[C@H](C(=O)O)Cc6c5[nH]c5ccccc65)C(=O)OC[C@@H](c5c6c(c(C)c(OC(C)=O)c54)OCO6)N3[C@@H](O)[C@H](C2)N1C [Compound 15-S] | > 1250 | > 1250 | > 1250 | 300 | 914 | 513 | 275 | 213 | 839 | 463 | GI50 (MDA-MB-231 cells): 163 nM; GI50 (PSN1 cells; Homo sapiens, PSN1, 72 h): 238 nM |
| COc1ccc2[nH]c3c(c2c1)C[C@H](CO)N[C@]31CS[C@@H]2c3c(OC(C)=O)c(C)c4c(c3[C@H](COC1=O)N1[C@@H]2[C@H]2c3c(cc(C)c(OC)c3O)C[C@@H]([C@@H]1C#N)N2C)OCO4 [Compound 18-R] |  |  | 1.34 |  |  | 1.34 | 1.46 | 1.34 |  | 1.06 | GI50 (PSN1 cells; [1]): 0.57 nM; GI50 (PSN1 cells; PSN1, 72 hours treatment, SRB): 0.571 nM |
| COc1c(C)cc2c(c1O)[C@@H]1[C@@H]3[C@@H]4SC[C@]5(N[C@@H](CO)Cc6c5oc5ccccc65)C(=O)OC[C@@H](c5c6c(c(C)c(OC(C)=O)c54)OCO6)N3[C@@H](O)[C@H](C2)N1C [Compound 39-R] |  | > 127 |  |  | > 127 |  |  |  |  |  |  |
| C=CCOC(=O)NC[C@H]1Cc2c(oc3ccccc23)[C@@]2(CS[C@@H]3c4c(OC(C)=O)c(C)c5c(c4[C@H](COC2=O)N2[C@@H]3[C@H]3c4c(cc(C)c(OC)c4O)C[C@@H]([C@@H]2C#N)N3C)OCO5)N1 [Compound 45-R] |  |  |  |  | > 114 |  |  |  |  |  |  |
| C=CCOC(=O)NC[C@@H]1Cc2c(oc3ccccc23)[C@@]2(CS[C@@H]3c4c(OC(C)=O)c(C)c5c(c4[C@H](COC2=O)N2[C@@H]3[C@H]3c4c(cc(C)c(OC)c4O)C[C@@H]([C@@H]2C#N)N3C)OCO5)N1 [Compound 45-S] |  |  |  |  | > 114 |  |  |  |  |  |  |
| COc1c(C)cc2c(c1O)[C@@H]1[C@@H]3[C@@H]4SC[C@]5(N[C@@H](CN)Cc6c5oc5ccccc65)C(=O)OC[C@@H](c5c6c(c(C)c(OC(C)=O)c54)OCO6)N3[C@@H](C#N)[C@H](C2)N1C [Compound 46-R] |  |  |  |  |  |  |  |  |  |  | TGI (A549 cells; A549, 72 hours treatment, SRB): 2.77E−09 Molar; CC50 (A549 cells; A549, 72 hours treatment, SRB): > 126 nM; TGI (HT29 cells; HT29, 72 hours treatment, SRB): 1.39E−09 Molar; CC50 (HT29 cells; HT29, 72 hours treatment, SRB): > 126 nM; TGI (MDA-MB-231 cells; MDA-MB-231, 72 hours treatment, SRB): 1.39E−09 Molar |
| COc1c(C)cc2c(c1O)[C@@H]1[C@@H]3[C@@H]4SC[C@]5(N[C@H](CN)Cc6c5oc5ccccc65)C(=O)OC[C@@H](c5c6c(c(C)c(OC(C)=O)c54)OCO6)N3[C@@H](C#N)[C@H](C2)N1C [Compound 46-S] |  | > 126 |  |  | > 126 |  |  |  |  |  |  |
